Entries after “also recorded” stand apart in the source; their conditions may differ.
Experiments:
[1] = RBC omega-3 fatty acid content, dietary study in beagle dogs; type: in vivo
Procedure: (§1) The test article, SDA, was administered in the diet once daily, 7 days per week, for up to 90 days to three groups (Groups 1-3) of male beagle dogs. The reference article, eicosapentaenoic acid (EPA), was administered to Group 4 on the same dosing regimen. Both SDA and EPA were supplied as ethyl esters. The control article, food grade high oleic sunflower oil (SFO), was administered to Group 5 on the same dosing regimen. SFO was also added to food of groups 1 through 4 so that all animals received a similar volume of oil per kg body wt. A dietary supplement, vitamin E, was added to all diets. Dosage levels were 21.4, 64.2 and 192.9 mg/kg/day SDA, 42.9 mg/kg/day EPA and were calculated for each animal based on body weight for Groups 1, 2, 3 and 4, respectively. Each group consisted of 15 males. Five animals/group were scheduled for each interim necropsy (study weeks 4 and 8) and the primary necropsy at the end of the 12-week treatment period. In addition, five animals were euthanized prior to randomization and test article administration to establish baseline levels of fatty acids (pretest necropsy).
(§2) The animals were observed twice daily for mortality and moribundity. Clinical examinations were performed daily, and detailed physical examinations were performed weekly. Individual body weights were recorded weekly. Food consumption was recorded daily and reported weekly. Blood samples for analysis of fatty acids were collected from five dogs scheduled for the pretest necropsy and from all surviving dogs during study weeks 2, 4, 8 and 12. All animals were euthanized, and in addition to liver and kidney sections, two samples of heart tissue were collected, one set was analyzed for fatty acid analysis and the other sample was retained for microscopic analysis at the scheduled necropsies. Sections from the heart, liver and kidney were examined microscopically from five animals during pretest and from 5 animals/group (Groups 3-5 only) at the study week 12 necropsy.
Blood samples were collected from the 5 dogs selected for the pretest necropsy and from all surviving dogs at study weeks 2, 4, 8 and 12. The samples were collected from the dog's jugular vein into tubes containing EDTA prior to the feeding/dosing regimen. The red blood cells (RBC) were separated from the plasma by centrifugation at 1500× for approximately 20 minutes at 4° C. The plasma was transferred to polypropylene tubes and stored at approximately −70° C. for future analysis. The buffy coat was removed from the packed RBCs, and the RBCs were divided approximately equally into two tubes.
(§3) Tissue preparation, lipid extraction and analysis were conducted according to a conventional protocol. Briefly, heart tissues were first lyophilized overnight, and then pulverized by grinding between two ground glass slides. The ground tissue was suspended in saline and subjected to 10-15 seconds of sonication. Lipids were extracted with methanol and methylene chloride, and the solvent evaporated under nitrogen. Thawed RBCs were extracted with isopropanol and hexane. After centrifugation of the stroma, the solvent was transferred and evaporated under nitrogen. Phospholipids extracted from heart and RBC samples were methylated with BF3, at 100° C. for 10 minutes. These conditions transmethylate glycerophospholipid FAs but not sphingolipid FAs. After heating, all samples were extracted with hexane and water. The hexane layer was removed, dried under nitrogen, and the FA methyl esters reconstituted in hexane for analysis by flame ionization gas chromatography. FAs were identified by comparison with known standards, and FA compositions were reported as weight percent of total FA.

[2] = Heart tissue omega-3 fatty acid content, dietary study in beagle dogs; type: in vivo
Procedure: as §1, §2, §3
Animals were euthanized by an intravenous injection of sodium pentobarbital followed by exsanguinations. Two samples of approximately 200 mg of heart tissue from the left ventricle were collected, rinsed in chilled saline, wrapped in aluminum foil, flash frozen in liquid nitrogen, and stored at approximately −70° C. The samples were analyzed for pathologic abnormalities.

[3] = dog, in vivo
Procedure: as §1, with “Five animals/group were scheduled for each interim necropsy (study weeks 4 and 8) and the primary necropsy at the end of the 12-week treatment period. In addition, five animals were euthanized prior to randomization and test article administration to establish baseline levels of fatty acids (pretest necropsy).” left out
The animals were observed twice daily for mortality and moribundity. […] Individual body weights were recorded weekly. Food consumption was recorded daily and reported weekly. […] All animals were euthanized, and in addition to liver and kidney sections, two samples of heart tissue were collected, one set was analyzed for fatty acid analysis and the other sample was retained for microscopic analysis at the scheduled necropsies. […]
Animals were euthanized by an intravenous injection of sodium pentobarbital followed by exsanguinations. […] The samples were analyzed for pathologic abnormalities. […]

[4] = dietary supplementation, human diet; phospholipid fractions; cited from earlier work
[5] = regular dietary intake; cited from earlier work

Structure (SMILES): CC/C=C\C/C=C\C/C=C\C/C=C\CCCCC(=O)O [SDA, Stearidonic acid]
- Total omega-3 fatty acid content (RBC) over pretreatment levels ([1]; 21.4 mg/kg/day SDA, as early as study week 2): overall increase
- Time of peak of total omega-3 fatty acid content (RBC) ([1]; 21.4 mg/kg/day SDA, decreasing thereafter): approximately 4 weeks
- Total omega-3 fatty acid content (RBC) over pretreatment ([1]; 192.9 mg/kg/day SDA (Group 3), elevated from study week 2 through 12 weeks): approximately 2 fold
- Overall increase in omega-3 fatty acid content (RBC) over time compared with the EPA group ([1]; 192.9 mg/kg/day SDA vs 42.9 mg/kg/day EPA, slightly lower): comparable to the increase seen in the 42.9 mg/kg/day EPA group
- Omega-3 fatty acid content in red blood cells (RBC) ([1]; SDA 21.4, 64.2 and 192.9 mg/kg/day in diet, study weeks 2, 4, 8 and 12): increased in a dose-dependent manner
- Heart omega-3 fatty acid content over pretreatment levels ([2]; 21.4 mg/kg/day SDA, study week 4): negligible increase
- Heart omega-3 fatty acid content, peak over pretreatment levels ([2]; 21.4 mg/kg/day SDA, study week 8): approximately 1.5 fold
- Heart omega-3 fatty acid content over pretreatment levels ([2]; 192.9 mg/kg/day SDA, study week 12): approximately 3 fold
- Omega-3 fatty acid content in the heart tissue ([2]; SDA 21.4, 64.2 and 192.9 mg/kg/day in diet, study weeks 4, 8 and 12): increased in a dose-dependent manner
- Conversion into EPA and DPA and incorporation into cardiac and red blood cell membranes ([2]; SDA via the diet daily for 12 consecutive weeks, male beagle dogs): effectively converted into EPA and DPA
- Microscopic changes to heart, liver and kidney tissues [3]: did not cause any significant microscopic changes
- Microscopic findings (heart, liver, kidney) [3]: no microscopic findings attributed to test article administration
- Concentrations of EPA and DPA in erythrocytes and plasma [4]: increase the concentrations of EPA and DPA; also recorded: effectively converted into EPA and DPA

Structure (SMILES): CC/C=C\C/C=C\C/C=C\CCCCCCCC(=O)O [ALA, α-linolenic acid]
- Tissue concentrations of EPA and DHA [5]: proven ineffective in raising the tissue concentrations of EPA and DHA

Structure (SMILES): CC/C=C\C/C=C\C/C=C\C/C=C\C/C=C\CCCC(=O)O [EPA, eicosapentaenoic acid, reference compound]
- RBC omega-3 fatty acid content relative to SFO-treated dogs (negative control) ([1]; 42.9 mg/kg/day EPA in diet, between study weeks 2 and 12): 3-10 fold
- Heart tissue omega-3 fatty acid content relative to sunflower oil-treated dogs (negative control) ([2]; 42.9 mg/kg/day EPA in diet, between study weeks 4 and 12): 3-5 fold
